According to patent publication US8889677B2, “Substituted triazoles useful as mGlu5 receptor modulators” (Boehringer Ingellheim International GmbH, priority 2012, dated 2014):

Target: T1, human recombinant mGluR5 (Homo sapiens, UniProt P41594)
T1 construct: expressed in transfected cells; host or cells: HEK 293 cell line cultured with tetracycline, hygromycin and geneticin; tetracycline removed 3-7 days before the assay
Assay: positive modulation of mGluR5, calcium based FLIPR assay in HEK 293 cells
Conditions: HEK 293 cell line expressing human recombinant mGluR5; EC50 of the modulation of the glutamate response (glutamate approx. 5% basal stimulation); peak height of Ca release fluorescence signal
Description: The positive modulation of mGluR5 is measured in a HEK 293 cell line expressing human recombinant mGluR5 and is detected with calcium based FLIPR assay. The cells are cultured with DMEM supplemented with 10% FCS, 2 μg/mL tetracycline, 100 μg/mL hygromycin and 500 μg/mL gneticin. The cell culture media is exchanged for tetracycline-free cell culture media 3-7 days before the assay. One day before the assay the cell culture medium is exchanged to DMEM without glutamine and phenol red and supplemented with 10% FCS, 100 μg/mL hygromycin and 500 μg/mL geneticin. On the assay day, the medium of the subconfluent cultures is removed and the cells are detached by addition of 2.5 ml EDTA (0.02%) per 175 cm2 culture flask for 1 minute. The cells are resuspend in Ringer solution (140 mM NaCl, 5 mM KCl, 2.5 mM CaCl2, 1.5 mM MgCl2, 5 mM Glucose, 10 mM Hepes; adjusted to pH 7.4 with NaOH), pooled and Ringer solution added to adjust the volume to 50 mL. The cell suspension is centrifuged for […] at 1500 U/min (425 g). The supernatant is removed and the cells washed a second time with 50 ml fresh Ringer solution and centrifuged again as before. The supernatant is again removed and the pellet resuspended in Ringer solution to 1,000,000 cells/ml (1×10^6 cells/mL). The cells are plated onto BD BioCoat Poly-D-Lysine 384 well plates (20.000 cells/well; 20 μl/well). The lid covered plates are then incubated until use at 37° C./10% CO2. For dye loading, 20 μl of Calcium-4 assay kit solution (prepared according to the manufacturer's description in Ringer solution) are added to the cells and the plates are incubated for 80 min 37° C. and then 10 min at room temperature.
Controls, Compound Dilution and Assay Execution:
Each assay plate contained wells with “high” and “low” controls:
Low controls 1% DMSO/ringer solution+basal glutamate activation (defined as 100% CTL).
High controls 10 μM CDPPB+basal glutamate activation (defined as 200% CTL).
Test compounds are dissolved and diluted in DMSO to 100-fold the desired concentrations. In a second step, the compounds are diluted in Ringer solution such that the compounds are 4-fold more concentrated than the desired final assay concentration. The final DMSO concentration was 1%.
20 μl of each compound solution are then transferred to the assay plate and the Ca2+ kinetic is measured to determine any intrinsic compound activity. After 5 min incubation in the FLIPR device, the second stimulation with 20 μl of glutamate in Ringer solution (glutamate concentration adjusted to approximately 5% basal stimulation of the maximal possible glutamate effect) is added and the kinetic Ca2+ response of the wells was measured for the modulation effect.
The peak height of the Ca release related fluorescence signal (9-66) is used for the EC50. The EC50 of the modulation is calculated over a nonlinear regression with GraphPad Prism (Table 1).

T1 sequence (P41594 21-1212): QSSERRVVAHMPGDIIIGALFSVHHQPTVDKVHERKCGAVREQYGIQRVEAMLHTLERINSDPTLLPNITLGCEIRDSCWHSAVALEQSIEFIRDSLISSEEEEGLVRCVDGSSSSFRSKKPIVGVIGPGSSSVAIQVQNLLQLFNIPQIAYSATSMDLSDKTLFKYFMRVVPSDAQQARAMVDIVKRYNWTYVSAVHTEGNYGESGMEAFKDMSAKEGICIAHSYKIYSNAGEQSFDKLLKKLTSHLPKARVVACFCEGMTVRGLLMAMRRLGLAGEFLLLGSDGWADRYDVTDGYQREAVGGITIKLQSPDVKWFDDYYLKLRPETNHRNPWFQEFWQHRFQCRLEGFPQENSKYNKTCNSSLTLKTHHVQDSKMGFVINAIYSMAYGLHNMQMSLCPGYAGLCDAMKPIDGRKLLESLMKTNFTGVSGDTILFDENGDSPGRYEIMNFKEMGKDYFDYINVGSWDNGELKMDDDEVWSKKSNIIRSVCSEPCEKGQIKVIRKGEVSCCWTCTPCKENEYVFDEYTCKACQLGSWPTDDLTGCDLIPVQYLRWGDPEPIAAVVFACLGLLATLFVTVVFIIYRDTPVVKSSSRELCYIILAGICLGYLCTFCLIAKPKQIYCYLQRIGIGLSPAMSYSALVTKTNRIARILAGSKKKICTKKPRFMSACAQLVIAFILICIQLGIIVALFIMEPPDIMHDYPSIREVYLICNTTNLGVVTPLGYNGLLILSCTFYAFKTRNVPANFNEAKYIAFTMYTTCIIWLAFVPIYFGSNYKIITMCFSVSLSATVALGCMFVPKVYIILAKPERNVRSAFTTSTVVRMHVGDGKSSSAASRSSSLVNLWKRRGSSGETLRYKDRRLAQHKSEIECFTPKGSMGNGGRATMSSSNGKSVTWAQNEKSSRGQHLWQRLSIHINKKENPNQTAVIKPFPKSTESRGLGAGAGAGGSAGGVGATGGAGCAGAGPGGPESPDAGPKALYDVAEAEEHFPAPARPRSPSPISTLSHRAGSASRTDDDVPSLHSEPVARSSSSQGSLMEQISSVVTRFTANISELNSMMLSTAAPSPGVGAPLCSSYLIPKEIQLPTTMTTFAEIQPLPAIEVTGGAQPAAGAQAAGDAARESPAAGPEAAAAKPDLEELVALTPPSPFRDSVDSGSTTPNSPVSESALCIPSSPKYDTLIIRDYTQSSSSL

EC50 [nM] | SMILES
24 | O=C(Cn1nc(-c2ccc(F)cc2)nc1-c1ccc(F)cc1)N1CCN(c2ncccn2)CC1 [Example 07.01.01., 2-(3,5-Bis-(4-fluoro-phenyl)-(1,2,4)triazol-1-yl)-1-(4-pyrimidin-2-yl-piperazin-1-yl)-ethanone]
56 | O=C(Cn1nc(-c2ccc(F)cc2)nc1-c1ccc(F)cc1)N1CCN(c2ccccn2)CC1 [Example 07.01.02.]
80 | O=C(Cn1nc(-c2ccc(F)cc2)nc1-c1ccc(F)cc1)N1CCN(c2cc(Br)ccn2)CC1 [Example 07.01.03.]
82 | O=C(Cn1nc(-c2ccc(F)cc2)nc1-c1ccc(F)cc1)N1CCN(c2cc(F)ccn2)CC1 [Example 07.01.04.]
399 | O=C(Cn1nc(-c2ccc(F)cc2)nc1-c1ccc(F)cc1)N1CCN(c2ccnc(F)c2)CC1 [Example 07.01.05.]
190 | N#Cc1cccnc1N1CCN(C(=O)Cn2nc(-c3ccc(F)cc3)nc2-c2ccc(F)cc2)CC1 [Example 07.02.01., 2-(4-(2-(3,5-Bis-(4-fluoro-phenyl)-(1,2,4)triazol-1-yl)-acetyl)-piperazin-1-yl)-nicotinonitrile]
474 | O=C(Cn1nc(-c2ccc(F)cc2)nc1-c1ccc(F)cc1)N1CCN(c2ncccc2C(F)(F)F)CC1 [Example 07.02.02.]
220 | COc1cccc(N2CCN(C(=O)Cn3nc(-c4ccc(F)cc4)nc3-c3ccc(F)cc3)CC2)n1 [Example 07.02.03.]
1060 | Cc1cccnc1N1CCN(C(=O)Cn2nc(-c3ccc(F)cc3)nc2-c2ccc(F)cc2)CC1 [Example 07.02.04.]
44 | Cc1ccnc(N2CCN(C(=O)Cn3nc(-c4ccc(F)cc4)nc3-c3ccc(F)cc3)CC2)c1 [Example 07.02.05.]
155 | Cc1ccc(N2CCN(C(=O)Cn3nc(-c4ccc(F)cc4)nc3-c3ccc(F)cc3)CC2)nc1 [Example 07.02.06.]
217 | O=C(Cn1nc(-c2ccc(F)cc2)nc1-c1ccc(F)cc1)N1CCN(c2cc(C(F)(F)F)ccn2)CC1 [Example 07.02.07.]
36 | N#Cc1ccnc(N2CCN(C(=O)Cn3nc(-c4ccc(F)cc4)nc3-c3ccc(F)cc3)CC2)c1 [Example 07.02.08.]
266 | COc1ccc(-c2nc(-c3ccc(OC)cc3)n(CC(=O)N3CCN(c4ncccc4C#N)CC3)n2)cc1 [Example 07.02.16.]
88 | COc1ccnc(N2CCN(C(=O)Cn3nc(-c4ccc(F)cc4)nc3-c3ccc(F)cc3)CC2)c1 [Example 07.03.01., 2-(3,5-Bis-(4-fluoro-phenyl)-(1,2,4)triazol-1-yl)-1-(4-(4-methoxy-pyridin-2-yl)-piperazin-1-yl)-ethanone]
595 | O=C(Cn1nc(-c2ccc(F)cc2)nc1-c1ccc(F)cc1)N1CCN(c2nccc(C(F)(F)F)n2)CC1 [Example 07.03.03.]
50 | O=C(Cn1nc(-c2ccc(F)cc2)nc1-c1ccc(F)cc1)N1CCN(c2ncc(Br)cn2)CC1 [Example 07.03.04.]
469 | O=C(Cn1nc(-c2ccc(F)cc2)nc1-c1ccc(F)cc1)N1CCN(c2cccc(F)c2)CC1 [Example 07.03.05.]
350 | N#Cc1cccc(N2CCN(C(=O)Cn3nc(-c4ccc(F)cc4)nc3-c3ccc(F)cc3)CC2)c1 [Example 07.03.06.]
124 | N#Cc1ccnc(N2CCN(C(=O)Cn3nc(-c4ccc(F)cc4)nc3-c3ccc(F)cc3)CC2)n1 [Example 07.03.08.]
121 | O=C(Cn1nc(-c2ccc(F)cc2)nc1-c1ccc(F)cc1)N1CCN(c2cc(Cl)ncn2)CC1 [Example 07.03.09.]
67 | COc1ccnc(N2CCN(C(=O)Cn3nc(-c4ccc(F)cc4)nc3-c3ccc(F)cc3)CC2)n1 [Example 07.03.10.]
134 | O=C(Cn1nc(-c2ccc(F)cc2)nc1-c1ccc(F)cc1)N1CCN(c2cccnn2)CC1 [Example 07.03.12.]
85 | O=C(Cn1nc(-c2ccc(F)cc2)nc1-c1ccc(F)cc1)N1CCN(c2ncncn2)CC1 [Example 07.03.14.]
574 | Cc1cc(C#N)nc(N2CCN(C(=O)Cn3nc(-c4ccc(F)cc4)nc3-c3ccc(F)cc3)CC2)n1 [Example 07.03.15.]
66 | CN(C)c1ccnc(N2CCN(C(=O)Cn3nc(-c4ccc(F)cc4)nc3-c3ccc(F)cc3)CC2)n1 [Example 07.03.16.]
601 | CN(C)c1ccnc(N2CCN(C(=O)Cn3nc(-c4ccc(F)cc4)nc3-c3ccc(F)cc3)CC2)c1 [Example 07.03.17.]
179 | COc1cncc(N2CCN(C(=O)Cn3nc(-c4ccc(F)cc4)nc3-c3ccc(F)cc3)CC2)n1 [Example 07.03.18.]

More lines, now with the values behind:

SMILES | EC50 [nM]
Cc1cc(-c2nc(-c3ccccc3)n(CC(=O)N3CCN(c4ncccn4)CC3)n2)ccc1Br [Example 07.01.06.] | 13
Cc1cc(-c2nc(-c3ccccc3)nn2CC(=O)N2CCN(c3ncccn3)CC2)ccc1Br [Example 07.01.07.] | 66
COc1ccc(-c2nc(-c3ccc(OC)cc3)n(CC(=O)N3CCN(c4ncccn4)CC3)n2)cc1 [Example 07.02.09.] | 61
COc1ccc(-c2nc(-c3ccc(OC)cc3)n(CC(=O)N3CCN(c4ccccn4)CC3)n2)cc1 [Example 07.02.10.] | 83
COc1ccc(-c2nc(-c3ccc(OC)cc3)n(CC(=O)N3CCN(c4ccc(C)cn4)CC3)n2)cc1 [Example 07.02.11.] | 375
COc1ccc(-c2nc(-c3ccc(OC)cc3)n(CC(=O)N3CCN(c4ccc(Cl)cn4)CC3)n2)cc1 [Example 07.02.12.] | 328
COc1ccc(-c2nc(-c3ccc(OC)cc3)n(CC(=O)N3CCN(c4ccc(C#N)cn4)CC3)n2)cc1 [Example 07.02.13.] | 1290
COc1ccc(-c2nc(-c3ccc(OC)cc3)n(CC(=O)N3CCN(c4ccc(C(F)(F)F)cn4)CC3)n2)cc1 [Example 07.02.14.] | 1050
COc1ccc(-c2nc(-c3ccc(OC)cc3)n(CC(=O)N3CCN(c4cccc(OC)n4)CC3)n2)cc1 [Example 07.02.15.] | 675
COc1ccc(-c2nc(-c3ccc(OC)cc3)n(CC(=O)N3CCN(c4ccc(C(N)=O)cn4)CC3)n2)cc1 [Example 07.02.17.] | 644
COc1ccc(-c2nc(-c3ccccc3)n(CC(=O)N3CCN(c4ccccn4)CC3)n2)cc1OC [Example 07.02.18.] | 227
COc1ccc(-c2nc(-c3ccccc3)n(CC(=O)N3CCN(c4ncccc4C#N)CC3)n2)cc1OC [Example 07.02.19.] | 494
COc1ccc(-c2nc(-c3ccccc3)n(CC(=O)N3CCN(c4cc(C)ccn4)CC3)n2)cc1OC [Example 07.02.20.] | 162
COc1ccc(-c2nc(-c3ccccc3)n(CC(=O)N3CCN(c4ccc(C)cn4)CC3)n2)cc1OC [Example 07.02.21.] | 451
COc1ccc(-c2nc(-c3ccccc3)n(CC(=O)N3CCN(c4ncccc4C(F)(F)F)CC3)n2)cc1OC [Example 07.02.23.] | 1910
COc1ccc(-c2nc(C3CCCCC3)n(CC(=O)N3CCN(c4ncccn4)CC3)n2)cc1 [Example 07.02.24.] | 229
COc1ccc(-c2nc(C3CCCCC3)n(CC(=O)N3CCN(c4ccccn4)CC3)n2)cc1 [Example 07.02.25.] | 424
COc1ccc(-c2nc(C3CCCCC3)n(CC(=O)N3CCN(c4cc(C)ccn4)CC3)n2)cc1 [Example 07.02.26.] | 252
O=C(Cn1nc(-c2ccccc2)nc1-c1ccccc1)N1CCN(c2ccccn2)CC1 [Example 07.02.27.] | 353
Cc1ccnc(N2CCN(C(=O)Cn3nc(-c4ccccc4)nc3-c3ccccc3)CC2)c1 [Example 07.02.28.] | 243
CCOC(=O)c1cccc(N2CCN(C(=O)Cn3nc(-c4ccc(F)cc4)nc3-c3ccc(F)cc3)CC2)c1 [Example 07.03.02.] | 1280
Cc1cc(C)nc(N2CCN(C(=O)Cn3nc(-c4ccc(F)cc4)nc3-c3ccc(F)cc3)CC2)n1 [Example 07.03.07.] | 610
CN(C)c1cncc(N2CCN(C(=O)Cn3nc(-c4ccc(F)cc4)nc3-c3ccc(F)cc3)CC2)n1 [Example 07.03.11.] | 283
COc1cc(OC)nc(N2CCN(C(=O)Cn3nc(-c4ccc(F)cc4)nc3-c3ccc(F)cc3)CC2)n1 [Example 07.03.13.] | 224
